Laboratory results taken from US10280156B2, “Heteroaromatic chalcone derivatives and their medical use” (Medizinische Universität Wien, priority 2014, dated 2019).

Columns and labels:
SU-DHL6 = assay: Viability test on SU-DHL6 cells; type: cell-based, human
Procedure: (§1) All experiments with hematological cell lines were done using phenol red-free RPMI 1640+L-glutamine (PAA Laboratories) supplemented with 1% PenStrep and 10% FBS gold, except experiments with OCI-Ly7 which were carried out in Gibco IMEM+GlutaMAX and 25 mM HEPES containing 20% FBS gold and 1% PenStrep. Cells were incubated in triplicates with increasing concentrations of the compounds for 48 h, changes in viability were determined using the cell proliferation and cytotoxicity assays EZ4U (Biomedica Group, Austria) and CellTiter-Blue Cell Viability Assay (Promega, Madison, Wis., USA) following instructions of the manufacturers. IC50 values were calculated from two independent experiments using GraphPad Prism 5 software.
Hematologic malignancies are highly heterogeneous in their biology and behavior. This and the fact that some patient groups are resistant to therapy underlines the urgent need for new therapeutic drugs. Compound 15 has therefore been tested on other cell lines representing a variety of hematologic neoplasms: two T-cell acute leukemia cell lines (CCRF, Jurkat), two myeloid leukemia cell lines (HL60, K562), and two additional B-cell lines (SU-DHL6, SU-DHL9). Viability was assessed as described in the methods section above. […] An exception was the chronic myeloid leukemia line K562. […]

HL60 = assay: Viability test on HL60 cells; type: cell-based, human
Procedure: JURKAT and CCRF-CEM (T-cell acute lymphoblastic leukemia), HL60 and K562 representing acute and chronic myeloid leukemia, respectively, the chronic lymphocytic leukemia cell line MEC-1, and the diffuse large B-cell lymphoma cell line U-2940 were cultured in Gibco RPMI 1640+GlutaMAX (Life Technologies, Carlsbad, Calif., USA) supplemented with 10% fetal bovine serum gold (FBS gold; PAA Laboratories, Pasching, Austria) and 1% PenStrep (100 U/ml penicillin and 100 μg/ml streptomycin; PAA Laboratories), and maintained at 37° C. in humidified atmosphere with 5% CO2. […]
as §1, with “software. […]” for “software.”

For `CCOc1ccccc1C(=O)/C=C/c1cc2ccccc2[nH]1` [Compound 15, 1-(2-Ethoxyphenyl)-3-(1H-indole-2-yl)-2-propen-1-one], the IC50 (SU-DHL6; Homo sapiens, SU-DHL-6, B-cell lymphoma, nd = no significant cytotoxic activity up to 100 μM) was 60 nM, the “viability, % of control” value (SU-DHL6; SU-DHL6, at concentrations <1 μM) was “less than 30 % of control” and the “viability, % of control” value (HL60; HL60, at concentrations <1 μM) was “less than 30 % of control”. The IC50 (HL60; Homo sapiens, HL-60, myeloid leukemia, nd = no significant cytotoxic activity up to 100 μM) was 20 nM.
